# Source: US20100040628A1 (OsteoGeneX, Inc, priority 2008, published 2010)
# Assays:
# mouse = test: Mouse bone formation assay, micro-CT examination of test vs control animals; type: in vivo; settings: predetermined dose for a complete dosing schedule, vs control solution
# Excerpt: Compounds useful in the methods of the present invention can be identified via a variety of methods known to one of skill in the art. Several exemplary methods for identifying such antagonists are described herein, including cell-based and in vitro techniques (Journal of Bone and Mineral Research 2006, 21(11), 1738-1749). A general method of identifying SOST antagonists involves evaluating the effects of antagonist candidates on bone formation under controlled conditions. Preferably bone formation is determined using micro-CT techniques on live animals. Preferred animals include rodents, more preferred are primates. Femur, tibia and vertebrae bones are particularly useful subjects for such study.
# Briefly, the test animal is treated with a predetermined dose of a SOST antagonist candidate. […]
# Once the dosing schedule has been completed, both test and control animals are examined to determine the quantity of bone formation present. […] Where necessary, levels of bone formation can be calculated by determining the volume of bone formation present in each animal. […]
# For example, the mouse test animal is treated with a predetermined dose of a SOST antagonist candidate for a complete dosing schedule. […] Once the dosing schedule has been completed, both test and control animals are examined with sacrifice using micro-CT to determine the quantity of bone formation present.
# Wnt pathway = Wnt pathway modulation to promote bone growth (FIG. 1); settings: doses of 2.5 ng (low), 60 ng (medium), 125 ng (high) and 1250 ng (very high)
# Description: For example, the mouse test animal is treated with a predetermined dose of a SOST antagonist candidate for a complete dosing schedule. A control mouse is treated with a control solution, preferably a non-irritating buffer solution or other carrier. Once the dosing schedule has been completed, both test and control animals are examined with sacrifice using micro-CT to determine the quantity of bone formation present.
# C57BL/6 mice = test: Bone growth with indoprofen: pQCT analysis on the femur after 30 days of daily treatment; type: in vivo, mouse; settings: four month old male C57BL/6 mice, 2 mg/kg i.p. daily for 30 days, FIG. 2
# Description: Four month old male C57BL/6 mice were treated daily with saline vehicle or the sclerostin inhibitor of indoprofen at 2 mg/kg (via i.p) for 30 days. Study endpoints included measurement of trabecular bone mineral content and bone mineral density by pQCT analysis on the femur.
compound,measurement,setting,value
CC(C(=O)O)c1ccc(N2Cc3ccccc3C2=O)cc1 (stereo not shown) [indoprofen],promotion of bone growth (quantity of bone formation by micro-CT),mouse,promoting bone growth
same,modulation of the Wnt pathway to promote bone growth,Wnt pathway,modulating the Wnt pathway to promote bone growth
same,increase for trabecular bone mineral density (BMD),C57BL/6 mice; pQCT on femur,greater than 2%
same,increase in bone mineral content (BMC) for the femur over baseline controls,C57BL/6 mice; pQCT,greater than 6%
